Assay results from patent US9610235B2, “Methods and compositions to improve mechanical resistance of teeth” (THEOCORP HOLDING CO., LLC, priority 2010, dated 2017).

Key:
[1] = deposition in drilled holes; NaF 0.25%, theobromine 200 mg/L
Procedure: (§1) Isolated human teeth were scratched with a diamond scribe on the enamel surface. Each tooth was then etched for 15 seconds in 0.1 M HCl, rinsed with distilled water, then exposed for 15 seconds to a 0.1 M oxalic acid solution, and then rinsed once more with distilled water. […] The pH was adjusted to 7.4-7.6, after which a 0.2 M CaCl2 solution was added with stirring (the solution turns immediately turbid from Ca-phosphate precipitation). The pH was checked and adjusted immediately to between 7.4 and 7.6, as required. […] A volume ratio of about 3:5 Na2HPO4 solution-to-CaCl2 solution was used to avoid any excess of either Ca or P. The teeth were so incubated at room temperature for about 90 minutes, after which they were removed from solution, carefully rinsed several times with distilled water, and then dried in a desiccator for 24 hours. After drying, the teeth were carbon-coated for viewing via scanning electron microscopy (SEM).
Using a dental drill, holes were drilled into the enamel surfaces of isolated human teeth, with each tooth receiving three holes in three separate locations. […] The teeth were visualized via SEM, as in EXAMPLE 4, and the amount of calcium phosphate deposition measured for each experimental condition.

[2] = Scratched human teeth, SEM comparison of theobromine and NaF; conditions: 90 minutes incubation; NaF 0.25%, theobromine 200 mg/L
Procedure: as §1

Structure (SMILES): [F-].[Na+] [NaF, sodium fluoride]
- Calcium Phosphate (μm) ± S.D. [1]: 70 ± 8.8 μm
- appearance of diamond-scribe scratch in SEM [2]: partly-filled
